Assay results reported in patent publication US9056844B2, “4-substituted-3-benzyloxy-bicyclo[3.1.0]hexane compounds as mGluR 2/3 antagonists” (Eli Lilly and Company, priority 2010, dated 2015).

How the values were obtained:
human mGlu2 receptors = molecular target: T1, human mGlu2 receptors (Homo sapiens, UniProt Q14416); assay: mGlu2 receptor cAMP antagonist assay; assay type: cell-based; conditions: reversal of DCG IV (EC90) inhibition of forskolin-stimulated cAMP; AV12 cells
T1 construct: expressed in transfected cells; host or cells: AV12 cells, co-expressing rat EAAT1
T1 sequence (Q14416 19-872): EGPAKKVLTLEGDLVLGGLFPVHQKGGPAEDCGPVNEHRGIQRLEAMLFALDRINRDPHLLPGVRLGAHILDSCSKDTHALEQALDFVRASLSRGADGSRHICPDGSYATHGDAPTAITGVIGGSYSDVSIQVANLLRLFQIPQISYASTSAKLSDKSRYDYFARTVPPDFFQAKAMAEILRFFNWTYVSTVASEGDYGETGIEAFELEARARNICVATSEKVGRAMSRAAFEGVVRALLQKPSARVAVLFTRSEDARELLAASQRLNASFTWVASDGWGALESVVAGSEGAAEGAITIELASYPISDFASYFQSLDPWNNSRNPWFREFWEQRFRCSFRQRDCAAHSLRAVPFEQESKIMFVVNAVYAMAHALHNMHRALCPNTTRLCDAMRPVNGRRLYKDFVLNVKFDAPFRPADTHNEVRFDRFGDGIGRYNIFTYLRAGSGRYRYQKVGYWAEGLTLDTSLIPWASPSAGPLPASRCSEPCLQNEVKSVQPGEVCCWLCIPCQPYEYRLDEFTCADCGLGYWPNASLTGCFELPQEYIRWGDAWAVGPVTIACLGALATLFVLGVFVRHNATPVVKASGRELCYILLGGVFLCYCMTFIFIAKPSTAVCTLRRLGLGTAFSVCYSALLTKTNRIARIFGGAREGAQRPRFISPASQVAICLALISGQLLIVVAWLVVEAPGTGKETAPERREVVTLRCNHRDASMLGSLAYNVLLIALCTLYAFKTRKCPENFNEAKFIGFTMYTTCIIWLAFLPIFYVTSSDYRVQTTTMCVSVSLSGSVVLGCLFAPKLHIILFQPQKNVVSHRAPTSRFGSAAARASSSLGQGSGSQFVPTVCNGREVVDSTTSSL
Experimental: mGlu2 and mGlu3 Receptor cAMP Antagonist Assays
Antagonist activity is assayed in recombinant AV12 cells stably expressing human mGlu2 or mGlu3 receptors and the rat glutamate transporter EAAT1 (Excitatory Amino Acid Transporter 1). The cell lines are maintained by culturing in DMEM with high glucose and pyridoxine hydrochloride supplemented with 5% dialyzed fetal bovine serum (FBS), 1 mM sodium pyruvate, 1 mM HEPES and 1 mM L-glutamine; geneticin and hygromycin B are used as selection antibiotics.
Reversal of the inhibition of forskolin-stimulated cAMP production by test compounds is measured using homogeneous time resolved fluorescence technology (HTRF; Cisbio cat #62AM4PEB). The medium is removed and the cells are incubated with 100 μl cAMP stimulation buffer (STIM) for 30 minutes at 37° C. […] Cells are incubated at 37° C. for 20 minutes. To measure the cAMP levels, cAMP-d2 conjugate and anti cAMP-cryptate conjugate in lysis buffer are incubated with the treated cells at room temperature for 1 hour (mGlu2) or 1.5 hour (mGlu3). […] The raw data are converted to cAMP amount (pmole/well) using a cAMP standard curve generated for each experiment. Relative IC50 values are calculated from the top-bottom range of the concentration response curve using a four-parameter logistic curve fitting program (ActivityBase v5.3.1.22).

human mGlu1 receptor = molecular target: T2, human mGlu1 receptor (Homo sapiens, UniProt Q13255); assay: FLIPR calcium assay for mGlu receptor selectivity, mGlu1 antagonist mode; assay type: cell-based; conditions: inhibition of EC90 glutamate response, read-out: mGlu1 % inhib. @12.5 μM
T2 construct: expressed in transfected cells; host or cells: AV12 cells, co-expressing rat EAAT1
T2 sequence (Q13255 19-1194): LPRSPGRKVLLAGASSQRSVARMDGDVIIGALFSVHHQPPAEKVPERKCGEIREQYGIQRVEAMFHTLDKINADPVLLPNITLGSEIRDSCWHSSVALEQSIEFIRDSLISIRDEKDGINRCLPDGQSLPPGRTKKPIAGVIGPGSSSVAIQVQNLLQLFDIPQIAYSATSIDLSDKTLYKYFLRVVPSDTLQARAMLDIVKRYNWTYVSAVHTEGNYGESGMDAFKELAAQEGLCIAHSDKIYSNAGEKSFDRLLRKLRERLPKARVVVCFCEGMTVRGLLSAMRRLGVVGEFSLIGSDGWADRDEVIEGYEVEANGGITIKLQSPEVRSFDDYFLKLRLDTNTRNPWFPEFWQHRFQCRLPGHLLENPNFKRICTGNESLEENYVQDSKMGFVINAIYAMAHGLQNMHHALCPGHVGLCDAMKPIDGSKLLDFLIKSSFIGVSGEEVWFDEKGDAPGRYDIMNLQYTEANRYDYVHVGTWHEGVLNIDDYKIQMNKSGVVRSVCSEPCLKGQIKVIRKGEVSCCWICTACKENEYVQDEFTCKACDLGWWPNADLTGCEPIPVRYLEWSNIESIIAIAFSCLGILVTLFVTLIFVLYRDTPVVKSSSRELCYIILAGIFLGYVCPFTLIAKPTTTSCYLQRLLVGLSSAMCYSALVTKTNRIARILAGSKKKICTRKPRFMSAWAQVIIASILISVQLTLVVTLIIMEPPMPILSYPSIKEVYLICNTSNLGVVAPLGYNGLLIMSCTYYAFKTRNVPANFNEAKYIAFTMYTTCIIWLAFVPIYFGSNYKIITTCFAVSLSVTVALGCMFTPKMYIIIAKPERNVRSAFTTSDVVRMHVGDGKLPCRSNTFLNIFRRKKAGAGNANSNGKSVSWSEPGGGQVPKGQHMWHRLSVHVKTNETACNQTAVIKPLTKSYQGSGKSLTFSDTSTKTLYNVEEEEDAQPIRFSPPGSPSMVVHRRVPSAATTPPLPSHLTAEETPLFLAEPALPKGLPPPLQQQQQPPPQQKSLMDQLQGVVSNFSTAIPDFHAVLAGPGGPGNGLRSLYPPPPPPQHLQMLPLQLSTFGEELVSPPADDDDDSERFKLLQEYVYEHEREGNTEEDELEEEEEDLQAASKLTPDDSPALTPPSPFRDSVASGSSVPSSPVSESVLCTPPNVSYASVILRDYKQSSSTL
From the text: (§1) FLIPR and cAMP Assays for mGlu Receptor Selectivity
(§2) The relative antagonist potencies of the compounds of the invention for the other human mGlu receptors can be assessed with either a cAMP assay or fluorometric calcium response assay (see for example Fell et al., JPET (in press)). Briefly, individual AV12 cell lines containing the rat EAAT1 glutamate transporter and stably expressing the human mGlu1, 2, 3, 4, 5, 6, & 8 receptors are used for these studies. The mGlu1 and 5 receptors are […], so they naturally signal through phospholipase C, producing a calcium flux response which can be used to measure receptor activation using a Fluorometric Imaging Plate Reader (FLIPR, Molecular Devices). The cell lines expressing the mGlu2, 3, 4, and 8 receptor are designed to express the Gα15 subunit so that these Gi-coupled receptors will generate a calcium flux response similar to the mGlu1 and 5 receptor expressing cell lines. The mGlu6 receptor is tested in a cAMP format using methods analogous to those developed for mGlu2 and mGlu3 above. These cell lines are maintained as previously described except that amounts of L-glutamine and selection agents (geneticin, hygromycin B, zeocin, and blasticidin) may vary depending on the cell line. Confluent cultures are passaged biweekly.
(§3) Intracellular calcium levels are monitored using FLIPR before and after the addition of test compounds and Fluo-3 AM (Invitrogen) or Calcium 4 (Molecular Devices) dye, depending on the cell line. Cells are plated 24 hours prior to assay in a variable concentration of glutamine and a variable density of cells per well, depending on the cell line. The medium is removed and the cells are incubated with 8 μM of dye (50 μl per well) for 90 or 120 minutes (depending on cell line) at 25° C. A single-addition FLIPR assay generating an 11-point concentration response curve for the agonist glutamate is conducted prior to each experiment to confirm the appropriate sensitivity of the cells. The results are analyzed using GraphPad Prism v4.03 to calculate the concentrations of glutamate needed to induce the EC90 (antagonist assay) and EC10 (potentiator assay) responses.
(§4) Compounds are tested at each mGlu receptor in a two-addition FLIPR assay using a 10-point concentration response profile starting at a final concentration of 25 μM for the agonist assay and 12.5 μM for the potentiator and antagonist assays. The first addition detects any agonist activity, and the second addition consists of 100 μl of select concentrations (depending on cell line) of glutamate in assay buffer generating an EC10 or EC90 glutamate response. Agonist effects are quantified as percent stimulation induced by compound alone relative to the maximal glutamate response. Antagonist effects are quantified by calculating the percent inhibition of the EC90 glutamate response caused by the compound. Potentiation effects are quantified as percent increase in the presence of an EC10 response in glutamate relative to the ECmax response. All data are calculated as relative IC50 or EC50 values using a four-parameter logistic curve fitting program (ActivityBase v5.3.1.22).

human mGlu5 receptor = molecular target: T3, human mGlu5 receptor (Homo sapiens, UniProt P41594); assay: FLIPR calcium assay for mGlu receptor selectivity, mGlu5 antagonist mode; assay type: cell-based; conditions: inhibition of EC90 glutamate response, read-out: mGlu5 % inhib. @12.5 μM
T3 construct: expressed in transfected cells; host or cells: AV12 cells, co-expressing rat EAAT1
T3 sequence (P41594 19-1212 limits assumed): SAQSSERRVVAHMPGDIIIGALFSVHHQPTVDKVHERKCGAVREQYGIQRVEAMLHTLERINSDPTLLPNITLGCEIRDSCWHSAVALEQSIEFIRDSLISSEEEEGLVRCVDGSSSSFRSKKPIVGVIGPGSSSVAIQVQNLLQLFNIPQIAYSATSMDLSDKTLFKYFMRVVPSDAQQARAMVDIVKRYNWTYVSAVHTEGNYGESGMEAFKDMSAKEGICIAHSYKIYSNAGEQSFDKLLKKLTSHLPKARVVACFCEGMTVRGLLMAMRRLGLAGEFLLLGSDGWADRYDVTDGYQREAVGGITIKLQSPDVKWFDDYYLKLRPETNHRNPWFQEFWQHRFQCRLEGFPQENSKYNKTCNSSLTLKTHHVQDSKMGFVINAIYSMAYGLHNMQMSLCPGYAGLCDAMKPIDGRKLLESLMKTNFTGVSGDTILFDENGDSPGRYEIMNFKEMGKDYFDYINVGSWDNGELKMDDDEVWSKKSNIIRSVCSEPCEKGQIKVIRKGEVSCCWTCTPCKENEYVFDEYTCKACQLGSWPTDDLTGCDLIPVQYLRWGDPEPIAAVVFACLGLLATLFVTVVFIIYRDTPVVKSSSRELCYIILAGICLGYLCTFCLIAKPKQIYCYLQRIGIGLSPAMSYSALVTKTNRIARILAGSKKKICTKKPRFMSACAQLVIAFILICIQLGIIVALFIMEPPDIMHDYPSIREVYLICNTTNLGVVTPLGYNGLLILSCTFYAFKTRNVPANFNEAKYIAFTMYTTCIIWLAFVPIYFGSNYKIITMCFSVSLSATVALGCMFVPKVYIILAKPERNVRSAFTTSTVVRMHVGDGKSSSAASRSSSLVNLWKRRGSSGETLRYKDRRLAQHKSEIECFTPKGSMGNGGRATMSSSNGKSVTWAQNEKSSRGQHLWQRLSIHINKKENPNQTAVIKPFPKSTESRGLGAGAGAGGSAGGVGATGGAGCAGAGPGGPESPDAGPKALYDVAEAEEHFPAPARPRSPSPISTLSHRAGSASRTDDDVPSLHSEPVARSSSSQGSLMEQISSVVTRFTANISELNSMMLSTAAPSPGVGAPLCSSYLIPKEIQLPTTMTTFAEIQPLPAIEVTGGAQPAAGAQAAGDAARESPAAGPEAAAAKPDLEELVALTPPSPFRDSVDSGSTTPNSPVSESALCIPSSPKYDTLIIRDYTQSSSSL
From the text: as §1, §2, §3, §4

human mGlu6 receptor = molecular target: T4, human mGlu6 receptor (Homo sapiens, UniProt O15303); assay: mGlu6 cAMP antagonist assay (reference agonist L-AP4); assay type: cell-based; conditions: cAMP format
T4 construct: expressed in transfected cells; host or cells: AV12 cells, co-expressing rat EAAT1
T4 sequence (O15303 25-877): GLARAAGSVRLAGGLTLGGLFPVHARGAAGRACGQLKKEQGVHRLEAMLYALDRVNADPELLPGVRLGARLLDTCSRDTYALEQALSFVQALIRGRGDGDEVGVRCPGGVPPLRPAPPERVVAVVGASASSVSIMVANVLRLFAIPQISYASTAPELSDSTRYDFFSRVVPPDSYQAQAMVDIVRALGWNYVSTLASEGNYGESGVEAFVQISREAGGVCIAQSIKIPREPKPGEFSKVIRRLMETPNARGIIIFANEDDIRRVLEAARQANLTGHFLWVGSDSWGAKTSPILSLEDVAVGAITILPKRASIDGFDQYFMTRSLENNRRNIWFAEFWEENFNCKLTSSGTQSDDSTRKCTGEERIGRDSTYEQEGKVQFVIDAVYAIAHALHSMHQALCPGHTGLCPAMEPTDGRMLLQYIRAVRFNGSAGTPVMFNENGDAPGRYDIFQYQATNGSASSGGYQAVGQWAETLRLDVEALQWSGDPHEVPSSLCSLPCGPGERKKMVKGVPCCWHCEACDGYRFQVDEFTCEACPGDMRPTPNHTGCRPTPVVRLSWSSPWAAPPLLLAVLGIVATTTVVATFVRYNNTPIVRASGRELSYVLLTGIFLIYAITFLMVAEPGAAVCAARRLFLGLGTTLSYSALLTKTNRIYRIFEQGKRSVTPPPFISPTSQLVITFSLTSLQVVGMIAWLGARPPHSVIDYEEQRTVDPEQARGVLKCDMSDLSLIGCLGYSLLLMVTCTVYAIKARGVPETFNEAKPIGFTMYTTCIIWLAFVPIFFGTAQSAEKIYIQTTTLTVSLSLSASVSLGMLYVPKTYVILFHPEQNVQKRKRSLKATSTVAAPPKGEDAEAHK
From the text: as §1, §2
Antagonist activity in mGlu6 cells is measured using cAMP in a method analogous to that described above for mGlu2 and mGlu3 activity, except that the reference agonist was L-AP4 (Tocris). […] Relative IC50 and EC50 values are calculated from the top-bottom range of the concentration response curve using a four-parameter logistic curve fitting program (ActivityBase v5.3.1.22).

human mGlu8 receptor = molecular target: T5, human mGlu8 receptor (Homo sapiens, UniProt O00222); assay: FLIPR calcium assay for mGlu receptor selectivity, mGlu8 antagonist mode; assay type: cell-based; conditions: for inhibition at 12.5 µM: inhibition of EC90 glutamate response, read-out: mGlu8 % inhib. @12.5 μM; for IC50: printed in brackets below the % inhib. value
T5 construct: expressed in transfected cells; host or cells: AV12 cells, co-expressing rat EAAT1 and Galpha15
T5 sequence (O00222 34-908): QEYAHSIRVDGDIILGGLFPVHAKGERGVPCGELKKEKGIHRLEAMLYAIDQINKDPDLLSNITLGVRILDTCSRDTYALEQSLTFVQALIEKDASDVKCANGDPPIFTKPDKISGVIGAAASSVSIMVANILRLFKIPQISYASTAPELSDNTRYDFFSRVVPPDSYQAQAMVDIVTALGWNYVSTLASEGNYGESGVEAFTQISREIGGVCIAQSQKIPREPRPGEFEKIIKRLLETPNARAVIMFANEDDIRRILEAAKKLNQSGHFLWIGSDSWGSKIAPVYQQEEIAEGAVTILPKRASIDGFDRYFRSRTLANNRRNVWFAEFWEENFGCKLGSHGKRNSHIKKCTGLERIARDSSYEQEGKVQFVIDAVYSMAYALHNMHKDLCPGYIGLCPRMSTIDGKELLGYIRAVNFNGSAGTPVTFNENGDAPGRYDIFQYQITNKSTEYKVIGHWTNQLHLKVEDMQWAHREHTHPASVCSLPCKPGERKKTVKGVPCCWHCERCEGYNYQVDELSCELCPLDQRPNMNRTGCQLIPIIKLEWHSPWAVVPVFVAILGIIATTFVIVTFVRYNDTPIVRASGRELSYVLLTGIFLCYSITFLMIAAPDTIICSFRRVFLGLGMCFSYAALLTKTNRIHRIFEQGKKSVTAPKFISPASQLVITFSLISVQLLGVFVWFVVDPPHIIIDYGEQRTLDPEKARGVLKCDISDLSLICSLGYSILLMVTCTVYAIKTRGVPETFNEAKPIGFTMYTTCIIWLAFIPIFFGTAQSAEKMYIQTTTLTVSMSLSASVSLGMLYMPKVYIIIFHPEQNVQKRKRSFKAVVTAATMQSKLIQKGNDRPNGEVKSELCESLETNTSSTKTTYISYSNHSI
From the text: as §1, §2, §3, §4

male NIH-Swiss mice = assay: Forced-swim test in mice (mFST); assay type: in vivo, mouse; conditions: for ED60: Mus musculus, ip, immobility in last 4 min of 6 min; for Maximal Decrease (1 − compound/control) * 100%: i.p., immobility time
From the text: Forced-Swim Test in Mice (mFST)
mFST is an established in vivo assay for antidepressant activity (Li et al. J Pharmacol Exp Ther. 319(1):254-9, 2006.). […] The mFST was used to evaluate potential antidepressant-like activity of novel mGlu2/3 antagonists essentially as described in previously published methods (see for example, Li et al. J Pharmacol Exp Ther. 319(1):254-9, 2006.). Briefly, male NIH-Swiss mice (Harlan Sprague-Dawley, Indianapolis, Ind.) weighing between 25-30 g are used. Group housed animals are removed from the vivarium to the testing area in their own cages and allowed to adapt to the new environment for at least 1 hour before testing. Compounds where R^1 and R^2 are both hydrogen are dissolved in water with minimal NaOH added for dissolution and are administered i.p. Compounds where R^1 and/or R^2 are other than hydrogen are prepared on the day of use in 2.0-2.5% N-methyl-pyrrolidinone and then suspended in 1% HEC, 0.25% Tween 80, and 0.05% Dow antifoam, and administered orally. Mice are placed in a cylinder (diameter: 10 cm; height: 25 cm) filled with 6 cm of water (22-25° C.) for 6 min. The duration of immobility during the last 4 min. of the 6 min. period of the test was scored. A mouse is recorded as immobile when floating motionless or making only those movements necessary to keep its head above water.

Structure (SMILES)	IC50 (human mGlu2 receptors) [nM]	inhibition at 12.5 µM (human mGlu1 receptor) [%]	inhibition at 12.5 µM (human mGlu5 receptor) [%]	IC50 (human mGlu6 receptor) [nM]	inhibition at 12.5 µM (human mGlu8 receptor) [%]	IC50 (human mGlu8 receptor) [nM]	ED60 (male NIH-Swiss mice) [mg/kg]	Maximal Decrease (1 − compound/control) * 100% (male NIH-Swiss mice) [%]
N[C@]1(C(=O)O)[C@@H]2[C@@H](C(=O)O)[C@@H]2[C@H](O)[C@H]1OCc1ccc(Cl)c(Cl)c1 [Example 1, (1S,2R,3S,4S,5R,6R)-2-Amino-3-[(3,4-dichlorobenzyl)oxy]-4-hydroxybicyclo[3.1.0]hexane-2,6-dicarboxylic acid]	43.3 ± 5.8	-0.47	4.8	3300	78.4	1900	1	59
CC(=O)N[C@H]1[C@H]2[C@H](C(=O)O)[C@H]2[C@](N)(C(=O)O)[C@@H]1OCc1ccc(Cl)c(Cl)c1 [Example 4, (1S,2R,3R,4S,5R,6S)-4-(Acetylamino)-2-amino-3-[(3,4-dichlorobenzyl)oxy]bicyclo[3.1.0]hexane-2,6-dicarboxylic acid]	25.5 ± 2.8	-2	22.6	2640 ± 424	23.4		9.5	38
Cl.N[C@]1(C(=O)O)[C@@H]2[C@@H](C(=O)O)[C@@H]2[C@H](NC(=O)CO)[C@H]1OCc1ccc(Cl)c(Cl)c1 [Example 9, (1S,2R,3R,4S,5R,6S)-2-Amino-3-[(3,4-dichlorobenzyl)oxy]-4-[(hydroxyacetyl)amino]bicyclo[3.1.0]hexane-2,6-dicarboxylic acid hydrochloride]	22 ± 3	5	13.8	2820	13.3		9.68	41

Now from value to molecule, other results behind:

IC50 (human mGlu2 receptors) [nM]	inhibition at 12.5 µM (human mGlu1 receptor) [%]	inhibition at 12.5 µM (human mGlu5 receptor) [%]	IC50 (human mGlu6 receptor) [nM]	inhibition at 12.5 µM (human mGlu8 receptor) [%]	IC50 (human mGlu8 receptor) [nM]	Structure (SMILES)	ED60 (male NIH-Swiss mice) [mg/kg]	Maximal Decrease (1 − compound/control) * 100% (male NIH-Swiss mice) [%]
13.1 ± 1.9	8.6	-12.9	1290 ± 162	92.3	507	N[C@]1(C(=O)O)[C@@H]2[C@@H](C(=O)O)[C@@H]2[C@H](Sc2nc[nH]n2)[C@H]1OCc1ccc(Cl)c(Cl)c1 [Example 2, (1R,2R,3S,4S,5R,6R)-2-Amino-3-[(3,4-dichlorobenzyl)oxy]-4-(1H-1,2,4-triazol-3-ylsulfanyl)bicyclo[3.1.0]hexane-2,6-dicarboxylic acid]	2.08	62
52 ± 17.9	11.2	22.7	3690	46.7		Cl.Cn1cnc(S[C@H]2[C@H]3[C@H](C(=O)O)[C@H]3[C@](N)(C(=O)O)[C@@H]2OCc2ccc(Cl)c(Cl)c2)n1 [Example 7, (1R,2R,3S,4S,5R,6R)-2-Amino-3-[(3,4-dichlorophenyl)methoxy]-4-[(1-methyl-1,2,4-triazol-3-yl)sulfanyl]bicyclo[3.1.0]hexane-2,6-dicarboxylic acid hydrochloride.]	> 10	18
